According to patent US8431567B2 (Abbott GmbH & Co. KG, priority 2006, dated 2013):
Counter-ions that a name gives are not always drawn.

target: T1, human vasopressin V1b receptor (Homo sapiens, UniProt P47901); assay: Vasopressin V1b receptor binding test; conditions: membranes of CHO-K1 cells, displacement of 1.5 nM 3H-AVP
T1 construct: expressed in transfected cells; host or cells: CHO-K1 (cell line hV1b_3H2_CHO), membrane preparation
T1 sequence (P47901 1-424): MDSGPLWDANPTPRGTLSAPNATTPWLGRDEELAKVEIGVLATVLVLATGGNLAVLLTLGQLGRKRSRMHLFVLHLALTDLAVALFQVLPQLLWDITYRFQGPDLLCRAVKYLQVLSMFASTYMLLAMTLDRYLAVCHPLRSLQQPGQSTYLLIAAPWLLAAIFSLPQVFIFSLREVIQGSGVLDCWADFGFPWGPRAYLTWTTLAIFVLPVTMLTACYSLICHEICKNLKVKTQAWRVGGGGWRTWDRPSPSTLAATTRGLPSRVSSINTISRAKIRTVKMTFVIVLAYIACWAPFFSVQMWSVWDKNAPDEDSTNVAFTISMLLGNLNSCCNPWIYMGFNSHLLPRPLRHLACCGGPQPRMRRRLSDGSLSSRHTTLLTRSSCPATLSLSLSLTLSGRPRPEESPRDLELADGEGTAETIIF
Method: • Vasopressin V1b Receptor Binding Test: • Substances:
The test substances were dissolved at a concentration of 10^−2 M in DMSO and diluted further in DMSO to 5×10^−4 M to 5×10^−9 M. These DMSO solutions were diluted 1:10 with test buffer. The concentration of substance was again diluted 1:5 in the test preparation.
The membrane pellet was homogenized and centrifuged again as described, and then taken up in 50 mM Tris-HCl, pH 7.4, homogenized and, frozen in aliquots, stored at −190° C. in liquid nitrogen.
The incubation buffer was: 50 mM Tris, 10 mM MgCl2, 0.1% BSA, pH 7.4. […] The nonspecific binding was determined with 1 μM AVP (Bachem #H1780). All determinations were performed in triplicate. After incubation (60 minutes at room temperature), the free radioligand was filtered off by vacuum filtration (Skatron cell harvester 7000) on Whatman GF/B glass-fibre filter mats and the filters were transferred to scintillation vessels. Liquid scintillation measurement was performed in a Tricarb instrument, Model 2000 or 2200CA (Packard). Conversion of the measured cpm to dpm was performed with the aid of a standard quench series.
The binding parameters were calculated by nonlinear regression in SAS.
For the compounds according to the invention, the affinities for the human vasopressin receptor V1b were measured according to the above test and the affinity constant (Ki) was determined.

SMILES	Ki
COc1ccc(S(=O)(=O)N2C(=O)C(c3cc(C)ccc3OC)(N3CCN(c4ccncc4)CC3)c3cc(C#N)ccc32)c(OC)c1 (racemic) [Example 67, (±)-5-Cyano-1-(2,4-dimethoxy-benzenesulphonyl)-3-(2-methoxy-5-methylphenyl)-3-(4-pyridin-4-yl-piperazin-1-yl)-2,3-dihydro-1H-indol-2-one×trifluoroacetic acid]	< 0.05 µM
CCOc1ccccc1C1(N2CCN(c3ccncc3)CC2)C(=O)N(S(=O)(=O)c2ccc(C#N)cc2F)c2ccc(C#N)cc21 (racemic) [Example 68, (±)-5-Cyano-1-(4-cyano-2-fluoro-benzenesulphonyl)-3-(2-ethoxyphenyl)-3-(4-pyridin-4-yl-piperazin-1-yl)-2,3-dihydro-1H-indol-2-one]	0.05 to 0.5 µM
CCOc1ccccc1C1(N2CCN(c3ccncc3)CC2)C(=O)N(S(=O)(=O)c2ccc(F)cc2F)c2ccc(C#N)cc21 (racemic) [Example 72, (±)-5-Cyano-1-(2,4-difluoro-benzenesulphonyl)-3-(2-ethoxyphenyl)-3-(4-pyridin-4-yl-piperazin-1-yl)-2,3-dihydro-1H-indol-2-one trifluoroacetate]	0.05 to 0.5 µM
CCOc1ccccc1C1(N2CCN(C3CCN(C)CC3)CC2)C(=O)N(S(=O)(=O)c2ccc(OC)cc2OC)c2ccc(C#N)cc21 (racemic) [Example 76, (±)-5-Cyano-1-(2,4-dimethoxy-benzenesulphonyl)-3-(2-ethoxyphenyl)-3-[4-(1-methyl-piperidin-4-yl)-piperazin-1-yl]-2,3-dihydro-1H-indol-2-one]	0.05 to 0.5 µM
CCOc1ccccc1C1(N2CCN(c3ccncc3)CC2)C(=O)N(S(=O)(=O)c2ccc(Cl)cc2F)c2ccc(C#N)cc21 (racemic) [Example 78, (±)-5-Cyano-1-(4-chloro-2-fluoro-benzenesulphonyl)-3-(2-ethoxyphenyl)-3-(4-pyridin-4-yl-piperazin-1-yl)-2,3-dihydro-1H-indol-2-one]	0.05 to 0.5 µM
CCOc1ccccc1C1(N2CCN(c3ccncc3)CC2)C(=O)N(S(=O)(=O)c2ccc(C(C)C)cc2)c2ccc(C#N)cc21 (racemic) [Example 81, (±)-5-Cyano-3-(2-ethoxyphenyl)-1-(4-isopropyl-benzenesulphonyl)-3-(4-pyridin-4-yl-piperazin-1-yl)-2,3-dihydro-1H-indol-2-one]	0.05 to 0.5 µM
CCOc1ccccc1C1(N2CCN(c3ccncc3)CC2)C(=O)N(S(=O)(=O)c2ccc(S(C)(=O)=O)cc2)c2ccc(C#N)cc21 (racemic) [Example 86, (±)-5-Cyano-3-(2-ethoxyphenyl)-1-(4-methanesulphonyl-benzenesulphonyl)-3-(4-pyridin-4-yl-piperazin-1-yl)-2,3-dihydro-1H-indol-2-one]	0.05 to 0.5 µM
CCOc1ccccc1C1(N2CCN(c3ccncc3)CC2)C(=O)N(S(=O)(=O)c2ccc(OC(F)F)cc2)c2ccc(C#N)cc21 (racemic) [Example 87, (±)-5-Cyano-1-(4-difluoromethoxy-benzenesulphonyl)-3-(2-ethoxyphenyl)-3-(4-pyridin-4-yl-piperazin-1-yl)-2,3-dihydro-1H-indol-2-one]	0.05 to 0.5 µM
CCOc1ccc(S(=O)(=O)N2C(=O)C(c3ccccc3OCC)(N3CCN(c4ccncc4)CC3)c3cc(C#N)ccc32)cc1 (racemic) [Example 89, (±)-5-Cyano-1-(4-ethoxy-benzenesulphonyl)-3-(2-ethoxyphenyl)-3-(4-pyridin-4-yl-piperazin-1-yl)-2,3-dihydro-1H-indol-2-one]	0.05 to 0.5 µM
CCOc1ccccc1C1(N2CCN(c3ccncc3)CC2)C(=O)N(S(=O)(=O)c2ccc(CC)cc2)c2ccc(C#N)cc21 (racemic) [Example 90, (±)-5-Cyano-3-(2-ethoxyphenyl)-1-(4-ethyl-benzenesulphonyl)-3-(4-pyridin-4-yl-piperazin-1-yl)-2,3-dihydro-1H-indol-2-one]	0.05 to 0.5 µM
CCOc1ccccc1C1(N2CCN(c3ccnc(CC)c3)CC2)C(=O)N(S(=O)(=O)c2ccc(OC)cc2OC)c2ccc(C#N)cc21 (racemic) [Example 93, (±)-5-Cyano-1-(2,4-dimethoxy-benzenesulphonyl)-3-(2-ethoxyphenyl)-3-[4-(2-ethyl-pyridin-4-yl)-piperazin-1-yl]-2,3-dihydro-1H-indol-2-one]	< 0.05 µM
CCOc1ccc(OC)cc1C1(N2CCCN(c3ccnc(C)c3)CC2)C(=O)N(S(=O)(=O)c2ccc(OC)cc2OC)c2ccc(C#N)cc21 (racemic) [Example 95, (±)-5-Cyano-1-(2,4-dimethoxy-benzenesulphonyl)-3-(2-ethoxy-5-methoxyphenyl)-3-[4-(2-methyl-pyridin-4-yl)-[1.4]diazepan-1-yl]-2,3-dihydro-1H-indol-2-one]	< 0.05 µM
CCOc1ccc(OC)cc1C1(N2CCN(C3CCNCC3)CC2)C(=O)N(S(=O)(=O)c2ccc(OC)cc2OC)c2ccc(C#N)cc21 (racemic) [Example 100, (±)-5-Cyano-1-(2,4-dimethoxy-benzenesulphonyl)-3-(2-ethoxy-5-methoxyphenyl)-3-(4-piperidin-4-yl-piperazin-1-yl)-2,3-dihydro-1H-indol-2-one hydrochloride]	< 0.05 µM

Second part, the compound after the results:

Ki	SMILES
0.05 to 0.5 µM	COc1ccc(S(=O)(=O)N2C(=O)C(c3cc(F)ccc3OC)(N3CCN(c4ccncc4)CC3)c3cc(C#N)ccc32)c(OC)c1 (racemic) [Example 65, (±)-5-Cyano-1-(2,4-dimethoxy-benzenesulphonyl)-3-(5-fluoro-2-methoxyphenyl)-3-(4-pyridin-4-yl-piperazin-1-yl)-2,3-dihydro-1H-indol-2-one]
0.05 to 0.5 µM	CCOc1ccc(S(=O)(=O)N2C(=O)C(c3ccccc3OCC)(N3CCN(c4ccncc4)CC3)c3cc(C#N)ccc32)c(OC)c1 (racemic) [Example 77, (±)-5-Cyano-1-(4-ethoxy-2-methoxy-benzenesulphonyl)-3-(2-ethoxyphenyl)-3-(4-pyridin-4-yl-piperazin-1-yl)-2,3-dihydro-1H-indol-2-one hydrochloride]
0.05 to 0.5 µM	CCOc1ccccc1C1(N2CCN(c3ccncc3)CC2)C(=O)N(S(=O)(=O)c2ccc(C(C)(C)C)cc2)c2ccc(C#N)cc21 (racemic) [Example 80, (±)-5-Cyano-1-(4-tert-butyl-benzenesulphonyl)-3-(2-ethoxyphenyl)-3-(4-pyridin-4-yl-piperazin-1-yl)-2,3-dihydro-1H-indol-2-one]
0.05 to 0.5 µM	CCOc1ccccc1C1(N2CCN(c3ccncc3)CC2)C(=O)N(S(=O)(=O)c2ccc(N)cc2)c2ccc(C#N)cc21 (racemic) [Example 84, (±)-5-Cyano-1-(4-amino-benzenesulphonyl)-3-(2-ethoxyphenyl)-3-(4-pyridin-4-yl-piperazin-1-yl)-2,3-dihydro-1H-indol-2-one]
0.05 to 0.5 µM	CCOc1ccccc1C1(N2CCN(c3ccncc3)CC2)C(=O)N(S(=O)(=O)c2ccc(C)cc2)c2ccc(C#N)cc21 (racemic) [Example 85, (±)-5-Cyano-3-(2-ethoxyphenyl)-3-(4-pyridin-4-yl-piperazin-1-yl)-1-(toluene-4-sulphonyl)-2,3-dihydro-1H-indol-2-one]
0.05 to 0.5 µM	CCOc1ccccc1C1(N2CCN(c3ccncc3)CC2)C(=O)N(S(=O)(=O)c2ccc(C(C)=O)cc2)c2ccc(C#N)cc21 (racemic) [Example 88, (±)-5-Cyano-1-(4-acetyl-benzenesulphonyl)-3-(2-ethoxyphenyl)-3-(4-pyridin-4-yl-piperazin-1-yl)-2,3-dihydro-1H-indol-2-one]
0.05 to 0.5 µM	CCOc1ccccc1C1(N2CCN(c3ccncc3)CC2)C(=O)N(S(=O)(=O)c2ccc([N+](=O)[O-])cc2OC)c2ccc(C#N)cc21 (racemic) [Example 91, (±)-5-Cyano-3-(2-ethoxyphenyl)-1-(2-methoxy-4-nitro-benzenesulphonyl)-3-(4-pyridin-4-yl-piperazin-1-yl)-2,3-dihydro-1H-indol-2-one]
< 0.05 µM	CCOc1ccc(OC)cc1C1(N2CCN(c3ccnc(C(C)C)c3)CC2)C(=O)N(S(=O)(=O)c2ccc(OC)cc2OC)c2ccc(C#N)cc21 (racemic) [Example 92, (±)-5-Cyano-1-(2,4-dimethoxy-benzenesulphonyl)-3-(2-ethoxy-5-methoxyphenyl)-3-[4-(2-isopropyl-pyridin-4-yl)-piperazin-1-yl]-2,3-dihydro-1H-indol-2-one]
< 0.05 µM	CCOc1ccc(OC)cc1C1(N2CCN(c3ccnc(CC)c3)CC2)C(=O)N(S(=O)(=O)c2ccc(OC)cc2OC)c2ccc(C#N)cc21 (racemic) [Example 94, (±)-5-Cyano-1-(2,4-dimethoxy-benzenesulphonyl)-3-(2-ethoxy-5-methoxyphenyl)-3-[4-(2-ethyl-pyridin-4-yl)-piperazin-1-yl]-2,3-dihydro-1H-indol-2-one]
